Patent US9512087B2, “Hybrid molecules containing pharmacophores of fluconazole as antifungal agents and their preparation” (Council for Scientific & Industrial Research, priority 2011, dated 2016)
Converted amounts (≈) assume the structure as drawn.

Legend:
Assay in all cases: Antifungal MIC, broth dilution
[1] = test system: C. albicans ATCC 24433; format: cell-based, Candida albicans; details: end point 48 hours; for MIC80 / MIC50: Candida albicans, ATCC24433, RPMI 1640 with MOPS; for MIC80: read-out: Ca01 A: MIC80; for MIC50: read-out: Ca01 B: MIC50; for Ca01 A: MIC80 / Ca01 B: MIC50: RPMI 1640 with MOPS
Experimental: (§1) The compounds of Formula 1 were tested for antifungal activity against Candida albicans, Aspergillus niger and Fusarium proliferatum. In vitro evaluation of antifungal activity was performed by determining the minimum inhibitory concentration (MIC) following standard methods (CLSI: Reference method for broth dilution antifungal susceptibility testing of yeasts; Approved standard, second edition M27-A2, 2002; CLSI: Reference method for broth dilution antifungal susceptibility testing of filamentous fungi; Approved standard M38-A, 2002). Anti-fungal susceptibility testing of these anti-fungal compounds was done by broth dilution method using RPMI 1640 medium with MOPS buffer. Known anti-fungal agents like fluconazole and amphotericin-B were used as positive control. End points were determined after 48 hours visually and by using spectrophotometer wherever necessary. Different dilutions were tried and various sets of experiments performed. The activity parameters are enumerated in Table 5.

[2] = test system: C. glabrata ATCC 90030; format: cell-based; details: end point 48 hours; for MIC50: Nakaseomyces glabratus, ATCC90030, RPMI 1640 with MOPS, read-out: Cg01 MIC50; for Cg01 MIC50: RPMI 1640 with MOPS
[3] = test system: C. krusei ATCC 6258; format: cell-based; details: end point 48 hours; for MIC50: Pichia kudriavzevii, ATCC6258, RPMI 1640 with MOPS, read-out: Ck01 MIC50; for Ck01 MIC50: RPMI 1640 with MOPS
[4] = test system: C. tropicalis ATCC 750; format: cell-based; details: end point 48 hours; for MIC50: Candida tropicalis, ATCC750, RPMI 1640 with MOPS, read-out: Ct01 MIC50; for Ct01 MIC50: RPMI 1640 with MOPS
[5] = test system: C. neoformans ATCC 34664; format: cell-based; details: end point 48 hours; for MIC50: Cryptococcus neoformans, ATCC34664, RPMI 1640 with MOPS, read-out: Cn01 MIC50; for Cn01 MIC50: RPMI 1640 with MOPS
[6] = test system: A. niger ATCC 16404; format: cell-based, Aspergillus niger; details: end point 48 hours; for MIC50: Aspergillus niger, ATCC16404, RPMI 1640 with MOPS, read-out: An01 MIC50; for An01 MIC50: RPMI 1640 with MOPS
Experimental: as §1

[7] = test system: A. fumigatus ATCC 46645; format: cell-based; details: end point 48 hours; for MIC50: Aspergillus fumigatus, ATCC46645, RPMI 1640 with MOPS, read-out: Afm01 MIC50; for Afm01 MIC50: RPMI 1640 with MOPS
[8] = test system: F. proliferatum ATCC 10052; format: cell-based, Fusarium proliferatum; details: end point 48 hours; for MIC50: Fusarium proliferatum, ATCC10052, RPMI 1640 with MOPS, read-out: Fp01 MIC50; for Fp01 MIC50: RPMI 1640 with MOPS
Experimental: as §1

Row | Compound | MIC80 [1] | MIC50 [1] | MIC50 [2] | MIC50 [3] | MIC50 [4] | MIC50 [5] | MIC50 [6] | MIC50 [7] | MIC50 [8] | Ca01 A: MIC80 [1] | Ca01 B: MIC50 [1] | Cg01 MIC50 [2] | Ck01 MIC50 [3] | Ct01 MIC50 [4] | Cn01 MIC50 [5] | An01 MIC50 [6] | Afm01 MIC50 [7] | Fp01 MIC50 [8]
1 | COc1ccc(/C=C/C(=O)c2ccc(OCC(O)(Cn3cncn3)c3ccc(F)cc3)cc2)cc1 (stereo not drawn) [Compound 1A-10] | 2 µg/mL (≈ 4.22 µM) | 0.25 µg/mL (≈ 0.528 µM) | 0.5 µg/mL (≈ 1.06 µM) | 4 µg/mL (≈ 8.45 µM) | 4 µg/mL (≈ 8.45 µM) | 0.5 µg/mL (≈ 1.06 µM) | > 4 µg/mL | > 4 µg/mL | > 4 µg/mL | – | – | – | – | – | – | – | – | –
2 | O=C(/C=C/c1ccc(Cl)cc1)c1ccc(OCC(O)(Cn2cncn2)c2ccc(F)cc2F)cc1 (stereo not drawn) [Compound 1A-6] | 0.25 µg/mL (≈ 0.504 µM) | 0.5 µg/mL (≈ 1.01 µM) | 0.5 µg/mL (≈ 1.01 µM) | 2 µg/mL (≈ 4.03 µM) | 0.5 µg/mL (≈ 1.01 µM) | 0.5 µg/mL (≈ 1.01 µM) | > 4 µg/mL | > 4 µg/mL | > 4 µg/mL | – | – | – | – | – | – | – | – | –
3 | C[C@@H]1[C@H](O)[C@@H](C)/C=C/C=C/C=C/C=C/C=C/C=C/C=C/[C@H](O[C@@H]2O[C@H](C)[C@@H](O)[C@H](N)[C@@H]2O)C[C@@H]2O[C@](O)(C[C@@H](O)C[C@@H](O)[C@H](O)CC[C@@H](O)C[C@@H](O)CC(=O)O[C@H]1C)C[C@H](O)[C@H]2C(=O)O [AMB, amphotericin-B, reference compound] | – | – | – | – | – | – | – | – | – | 0.25 µg/mL | 0.25 µg/mL | 0.25 µg/mL | 0.5 µg/mL | 0.5 µg/mL | 0.5 µg/mL | 0.25 µg/mL | 0.5 µg/mL | 2 µg/mL
4 | COc1ccccc1/C=C/C(=O)c1ccc(OCC(O)(Cn2cncn2)c2ccc(F)cc2F)cc1 (stereo not drawn) [Compound 1A-3] | 0.5 µg/mL (≈ 1.02 µM) | 0.25 µg/mL (≈ 0.509 µM) | 0.5 µg/mL (≈ 1.02 µM) | > 8 µg/mL | 2 µg/mL (≈ 4.07 µM) | 8 µg/mL (≈ 16.3 µM) | > 8 µg/mL | > 8 µg/mL | > 8 µg/mL | – | – | – | – | – | – | – | – | –

Results, then the compound that gave them:

Row | MIC80 [1] | MIC50 [1] | MIC50 [2] | MIC50 [3] | MIC50 [4] | MIC50 [5] | MIC50 [6] | MIC50 [7] | MIC50 [8] | Ca01 A: MIC80 [1] | Ca01 B: MIC50 [1] | Cg01 MIC50 [2] | Ck01 MIC50 [3] | Ct01 MIC50 [4] | Cn01 MIC50 [5] | An01 MIC50 [6] | Afm01 MIC50 [7] | Fp01 MIC50 [8] | Compound
5 | 0.12 µg/mL (≈ 0.257 µM) | 0.03 µg/mL (≈ 0.0642 µM) | 0.03 µg/mL (≈ 0.0642 µM) | 2 µg/mL (≈ 4.28 µM) | 0.12 µg/mL (≈ 0.257 µM) | 0.5 µg/mL (≈ 1.07 µM) | > 4 µg/mL | > 4 µg/mL | > 4 µg/mL | – | – | – | – | – | – | – | – | – | O=C(/C=C/c1cccs1)c1ccc(OC[C@](O)(Cn2cncn2)c2ccc(F)cc2F)cc1 [R-(−)-1A-13]
6 | 1 µg/mL (≈ 1.87 µM) | 0.5 µg/mL (≈ 0.936 µM) | 1 µg/mL (≈ 1.87 µM) | > 4 µg/mL | > 4 µg/mL | 1 µg/mL (≈ 1.87 µM) | > 4 µg/mL | > 4 µg/mL | > 4 µg/mL | – | – | – | – | – | – | – | – | – | COc1ccc(/C=C/C(=O)c2ccc(OCC(O)(Cn3cncn3)c3ccc(Br)cc3)cc2)cc1 (stereo not drawn) [Compound 1A-11]
7 | 0.5 µg/mL (≈ 0.977 µM) | 0.25 µg/mL (≈ 0.489 µM) | 0.5 µg/mL (≈ 0.977 µM) | 1 µg/mL (≈ 1.95 µM) | 0.5 µg/mL (≈ 0.977 µM) | 0.5 µg/mL (≈ 0.977 µM) | > 4 µg/mL | > 4 µg/mL | > 4 µg/mL | – | – | – | – | – | – | – | – | – | O=C(/C=C/c1ccc2ccccc2c1)c1ccc(OCC(O)(Cn2cncn2)c2ccc(F)cc2F)cc1 (stereo not drawn) [Compound 1A-14]
8 | 0.25 µg/mL (≈ 0.626 µM) | 0.12 µg/mL (≈ 0.3 µM) | 0.12 µg/mL (≈ 0.3 µM) | 8 µg/mL (≈ 20 µM) | 2 µg/mL (≈ 5.01 µM) | 4 µg/mL (≈ 10 µM) | 8 µg/mL (≈ 20 µM) | 8 µg/mL (≈ 20 µM) | > 128 µg/mL | – | – | – | – | – | – | – | – | – | CC(=O)/C=C/c1ccc(OCC(O)(Cn2cncn2)c2ccc(F)cc2F)cc1 (stereo not drawn) [Compound 1A-25]
9 | – | – | – | – | – | – | – | – | – | 8 µg/mL | 4 µg/mL | 0.12 µg/mL | >4 µg/mL | >4 µg/mL | >4 µg/mL | >4 µg/mL | >4 µg/mL | >4 µg/mL | CCCCCCCCOc1ccc(C(=O)/C=C/c2ccc(OCC(O)(Cn3cncn3)c3ccc(F)cc3F)cc2)cc1 (stereo not drawn) [Compound 1A-24]
10 | > 4 µg/mL | > 4 µg/mL | > 4 µg/mL | > 4 µg/mL | > 4 µg/mL | > 4 µg/mL | > 4 µg/mL | > 4 µg/mL | > 4 µg/mL | – | – | – | – | – | – | – | – | – | C=CCOC(COc1ccc(C(=O)/C=C/c2ccc(Cl)cc2Cl)cc1)(Cn1cncn1)c1ccc(F)cc1F (stereo not drawn) [Compound 1A-18, (E)-1-(4-(2-(Allyloxy)-2-(2,4-difluorophenyl)-3-(1H-1,2,4-triazol-1-yl)propoxy)phenyl)-3-(2,4-dichlorophenyl)prop-2-en-1-one]
